# Laboratory results as given in ChEMBL document CHEMBL1201862, “PubChem BioAssay data set” (2004).
#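 Grown in 96-well plates, cells were treated for 48 hours with each compound at five concentrations. Insufficient inhibition: endpoint recorded as highest concentration tested. GI50: concentration for 50% inhibition of growth.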 Activity calls are given as the source filed them. Cut-off read from the data, not from the text of the source: active = GI50 up to about 1.1 µM and inactive = higher.
# Experiments:
# Assay in all cases: DTP human tumour cell line panel, 48 h
# [1] = system: CAKI-1
# [2] = system: MDA-MB-231
# [3] = system: OVCAR-4
# [4] = system: MOLT-4
# [5] = system: LOX IMVI
# [6] = system: OVCAR-5
# [7] = system: ACHN
# [8] = system: NCI-H460
# [9] = system: CCRF-CEM
# [10] = system: SR
# [11] = system: MDA-MB-435
# [12] = system: OVCAR-8
# [13] = system: 786-0
# [14] = system: KM12
# [15] = system: NCI-H226
# [16] = system: HCT-116
# [17] = system: NCI-H23
# [18] = system: PC-3
# [19] = system: UO-31
# [20] = system: MCF7
# [21] = system: SK-MEL-2
# [22] = system: A549
# [23] = system: UACC-62
# [24] = system: SK-MEL-28
# [25] = system: HCT-15
# [26] = system: SN12C
# [27] = system: SF-295
# [28] = system: SK-OV-3
# [29] = system: MDA-N
# [30] = system: T47D
# [31] = system: UACC-257
# [32] = system: HOP-62
# [33] = system: TK-10
# [34] = system: IGROV-1
# [35] = system: DU-145
# [36] = system: SF-539
# [37] = system: A498
# [38] = system: EKVX
# [39] = system: U-251
# [40] = system: Hs-578T
# [41] = system: NCI-H522
# [42] = system: SK-MEL-5
# [43] = system: SNB-19
# [44] = system: COLO 205
# [45] = system: SW-620
# [46] = system: NCI/ADR-RES
# [47] = system: HOP-92
# [48] = system: SF-268
# [49] = system: M14
# [50] = system: SNB-75
# [51] = system: OVCAR-3
# [52] = system: RPMI-8226
# [53] = system: HT-29
# [54] = system: HL-60
# [55] = system: K562
# [56] = system: RXF 393
# [57] = system: HCC 2998
# [58] = system: Malme-3M
structure (smiles),measurement,setting,value
C=C(C)CCC1CCCCC(CN(C)C)C1=O (stereo not given),GI50,[1],> 100 µM (inactive)
same,GI50,[2],> 100 µM (inactive)
same,GI50,[3],> 100 µM (inactive)
same,GI50,[4],31.3 µM (inactive)
same,GI50,[5],> 100 µM (inactive)
same,GI50,[6],> 100 µM (inactive)
same,GI50,[7],> 100 µM (inactive)
same,GI50,[8],> 100 µM (inactive)
same,GI50,[9],> 100 µM (inactive)
same,GI50,[10],> 100 µM (inactive)
same,GI50,[11],> 100 µM (inactive)
same,GI50,[12],> 100 µM (inactive)
same,GI50,[13],> 100 µM (inactive)
same,GI50,[14],> 100 µM (inactive)
same,GI50,[15],> 100 µM (inactive)
same,GI50,[16],> 100 µM (inactive)
same,GI50,[17],> 100 µM (inactive)
same,GI50,[18],> 100 µM (inactive)
same,GI50,[19],> 100 µM (inactive)
same,GI50,[20],75 µM (inactive)
same,GI50,[21],> 100 µM (inactive)
same,GI50,[22],> 100 µM (inactive)
same,GI50,[23],> 100 µM (inactive)
same,GI50,[24],> 100 µM (inactive)
same,GI50,[25],> 100 µM
same,GI50,[26],> 100 µM (inactive)
same,GI50,[27],> 100 µM (inactive)
same,GI50,[28],> 100 µM (inactive)
same,GI50,[29],> 100 µM (inactive)
same,GI50,[30],> 100 µM (inactive)
same,GI50,[31],> 100 µM (inactive)
same,GI50,[32],> 100 µM (inactive)
same,GI50,[33],> 100 µM (inactive)
same,GI50,[34],> 100 µM (inactive)
same,GI50,[35],> 100 µM (inactive)
same,GI50,[36],> 100 µM (inactive)
same,GI50,[37],> 100 µM (inactive)
same,GI50,[38],> 100 µM (inactive)
same,GI50,[39],> 100 µM (inactive)
same,GI50,[40],> 100 µM (inactive)
same,GI50,[41],10.7 µM (inactive)
same,GI50,[42],> 100 µM (inactive)
same,GI50,[43],> 100 µM (inactive)
same,GI50,[44],> 100 µM (inactive)
same,GI50,[45],> 100 µM (inactive)
same,GI50,[46],> 100 µM (inactive)
same,GI50,[47],> 100 µM (inactive)
same,GI50,[48],> 100 µM (inactive)
same,GI50,[49],> 100 µM (inactive)
same,GI50,[50],> 100 µM (inactive)
same,GI50,[51],> 100 µM (inactive)
same,GI50,[52],> 100 µM (inactive)
same,GI50,[53],> 100 µM (inactive)
same,GI50,[54],> 100 µM (inactive)
same,GI50,[55],> 100 µM (inactive)
O=C1/C(=N/O)Cc2c(Br)ccc(Br)c21,GI50,[1],42.4 µM (inactive)
same,GI50,[2],46.9 µM (inactive)
same,GI50,[3],33.3 µM (inactive)
same,GI50,[4],25.4 µM (inactive)
same,GI50,[5],31.9 µM (inactive)
same,GI50,[6],> 100 µM (inactive)
same,GI50,[7],40.7 µM (inactive)
same,GI50,[8],37.6 µM (inactive)
same,GI50,[9],27.8 µM (inactive)
same,GI50,[10],28.4 µM (inactive)
same,GI50,[11],39.6 µM (inactive)
same,GI50,[12],42.7 µM (inactive)
same,GI50,[13],74 µM (inactive)
same,GI50,[14],67.3 µM (inactive)
same,GI50,[56],99.3 µM (inactive)
same,GI50,[15],68.1 µM (inactive)
same,GI50,[16],55.1 µM (inactive)
same,GI50,[17],58.7 µM (inactive)
same,GI50,[18],27.8 µM (inactive)
same,GI50,[19],> 100 µM (inactive)
same,GI50,[20],36.1 µM (inactive)
same,GI50,[21],17.9 µM (inactive)
same,GI50,[24],60.3 µM (inactive)
same,GI50,[25],33.7 µM
same,GI50,[27],34.6 µM (inactive)
same,GI50,[28],37.2 µM (inactive)
same,GI50,[29],48.3 µM (inactive)
same,GI50,[30],51.3 µM (inactive)
same,GI50,[31],42.2 µM (inactive)
same,GI50,[32],> 100 µM (inactive)
same,GI50,[33],48.4 µM (inactive)
same,GI50,[34],40 µM (inactive)
same,GI50,[35],71.6 µM (inactive)
same,GI50,[36],> 100 µM (inactive)
same,GI50,[37],68.1 µM (inactive)
same,GI50,[38],28.2 µM (inactive)
same,GI50,[39],39.6 µM (inactive)
same,GI50,[40],37.8 µM (inactive)
same,GI50,[41],27.5 µM (inactive)
same,GI50,[42],32.4 µM (inactive)
same,GI50,[45],63.5 µM (inactive)
same,GI50,[57],24.2 µM (inactive)
same,GI50,[46],35.7 µM (inactive)
same,GI50,[47],> 100 µM (inactive)
same,GI50,[48],35.2 µM (inactive)
same,GI50,[49],> 100 µM (inactive)
same,GI50,[50],> 100 µM (inactive)
same,GI50,[51],22.3 µM (inactive)
same,GI50,[52],24.4 µM (inactive)
same,GI50,[53],> 100 µM (inactive)
same,GI50,[54],26.9 µM (inactive)
same,GI50,[55],26 µM (inactive)
COC(=O)CCC(=O)c1ccc2c(c1)CC1(Cc3ccccc3C1)C2,GI50,[2],> 100 µM (inactive)
same,GI50,[3],32.1 µM (inactive)
same,GI50,[4],17.7 µM (inactive)
same,GI50,[5],36.2 µM (inactive)
same,GI50,[6],53.5 µM (inactive)
same,GI50,[7],56.2 µM (inactive)
same,GI50,[9],16.4 µM (inactive)
same,GI50,[10],14.7 µM (inactive)
same,GI50,[11],64 µM (inactive)
same,GI50,[12],47.1 µM (inactive)
same,GI50,[13],94.6 µM (inactive)
same,GI50,[14],> 100 µM (inactive)
same,GI50,[56],> 100 µM (inactive)
same,GI50,[15],24.7 µM (inactive)
same,GI50,[16],28.3 µM (inactive)
same,GI50,[17],40.1 µM (inactive)
same,GI50,[18],41 µM (inactive)
same,GI50,[19],42.9 µM (inactive)
same,GI50,[20],85.5 µM (inactive)
same,GI50,[21],34.7 µM (inactive)
same,GI50,[22],54.7 µM (inactive)
same,GI50,[23],> 100 µM (inactive)
same,GI50,[26],82.6 µM (inactive)
same,GI50,[27],38 µM (inactive)
same,GI50,[28],> 100 µM (inactive)
same,GI50,[29],49.1 µM (inactive)
same,GI50,[30],39.1 µM (inactive)
same,GI50,[31],24.3 µM (inactive)
same,GI50,[32],> 100 µM (inactive)
same,GI50,[33],78.7 µM (inactive)
same,GI50,[34],> 100 µM (inactive)
same,GI50,[36],> 100 µM (inactive)
same,GI50,[37],48.6 µM (inactive)
same,GI50,[38],> 100 µM (inactive)
same,GI50,[39],58.7 µM (inactive)
same,GI50,[40],> 100 µM (inactive)
same,GI50,[41],33.4 µM (inactive)
same,GI50,[42],16.2 µM (inactive)
same,GI50,[44],29.4 µM (inactive)
same,GI50,[58],80.5 µM (inactive)
same,GI50,[57],55.8 µM (inactive)
same,GI50,[46],64 µM (inactive)
same,GI50,[47],31.3 µM (inactive)
same,GI50,[49],> 100 µM (inactive)
same,GI50,[51],57.8 µM (inactive)
same,GI50,[52],31.7 µM (inactive)
same,GI50,[53],20.1 µM (inactive)
same,GI50,[55],0.218 µM (active)
CCN(CCCl)c1ccc(NC(=O)c2cc(C(=O)NCCN(C)C)cc(C(=O)Nc3ccc(N(CC)CCCl)cc3)c2)cc1,GI50,[1],27.5 µM (inactive)
same,GI50,[2],15.6 µM (inactive)
same,GI50,[3],9.38 µM (inactive)
same,GI50,[4],0.151 µM (active)
same,GI50,[5],1.36 µM (inactive)
same,GI50,[6],16.5 µM (inactive)
same,GI50,[7],5.25 µM (inactive)
same,GI50,[8],0.713 µM (active)
same,GI50,[9],0.0687 µM (active)
same,GI50,[10],0.659 µM (active)
same,GI50,[11],8.32 µM (inactive)
same,GI50,[12],3.57 µM (inactive)
same,GI50,[13],0.942 µM (active)
same,GI50,[14],8.65 µM (inactive)
same,GI50,[56],5.41 µM (inactive)
same,GI50,[15],3.94 µM (inactive)
same,GI50,[16],3.03 µM (inactive)
same,GI50,[17],3.33 µM (inactive)
same,GI50,[18],2.22 µM (inactive)
same,GI50,[19],> 100 µM (inactive)
same,GI50,[20],0.746 µM (active)
same,GI50,[21],15.7 µM (inactive)
same,GI50,[22],6.24 µM (inactive)
same,GI50,[23],4.98 µM (inactive)
same,GI50,[24],16.6 µM (inactive)
same,GI50,[25],51.1 µM
same,GI50,[26],2.08 µM (inactive)
same,GI50,[27],9.46 µM (inactive)
same,GI50,[28],4.26 µM (inactive)
same,GI50,[29],11.1 µM (inactive)
same,GI50,[30],18.7 µM (inactive)
same,GI50,[31],18.1 µM (inactive)
same,GI50,[32],1.82 µM (inactive)
same,GI50,[33],16.7 µM (inactive)
same,GI50,[34],6.43 µM (inactive)
same,GI50,[35],8.41 µM (inactive)
same,GI50,[36],1.62 µM (inactive)
same,GI50,[37],18.5 µM (inactive)
same,GI50,[39],2.18 µM (inactive)
same,GI50,[40],0.513 µM (active)
same,GI50,[41],2.3 µM (inactive)
same,GI50,[42],12.3 µM (inactive)
same,GI50,[43],1.36 µM (inactive)
same,GI50,[58],13.6 µM (inactive)
same,GI50,[45],1.76 µM (inactive)
same,GI50,[57],10.6 µM (inactive)
same,GI50,[46],> 100 µM (inactive)
same,GI50,[47],3.74 µM (inactive)
same,GI50,[48],0.891 µM (active)
same,GI50,[49],9.38 µM (inactive)
same,GI50,[50],8.55 µM (inactive)
same,GI50,[52],3.46 µM (inactive)
same,GI50,[53],1.57 µM (inactive)
same,GI50,[54],0.0743 µM (active)
same,GI50,[55],2.09 µM (inactive)
